Data: patent US20150005281A1, “PYRIMIDINE-2,4-DIAMINE DERIVATIVES AS KINASE INHIBITORS” (Cellzome Limited, priority 2011, published 2015)

Legend:
Type in all cases: binding
JAK2 = biological target: T1, JAK2 (Homo sapiens, UniProt O60674); test: Kinobeads assay with immunodetection, JAK2; conditions: mixed Molt4/Ramos lysate, read-out: Inhibition values (IC50) JAK2
T1 construct: endogenous in cells; host or cells: Molt4 (ATCC CRL-1582) and Ramos (ATCC CRL-1596) cells; mixed lysate 1:2
Experimental: (§1) Determination of the Effect of the Compounds According to the Invention on Janus Kinases (JAK Family) in Kinobeads™ Assays with Immunodetection of Kinases
(§2) The compounds of the present invention as described in the previous examples were tested in a Kinobeads™ assay as described for ZAP-70 (WO-A 2007/137867). Briefly, test compounds (at various concentrations) and the affinity matrix with the immobilized aminopyrido-pyrimidine ligand 24 were added to cell lysate aliquots and allowed to bind to the proteins in the lysate sample. After the incubation time the beads with captured proteins were separated from the lysate. Bound proteins were then eluted and the presence of JAK1, JAK2, JAK3 and TYK2 was detected and quantified using specific antibodies in a dot blot procedure and the Odyssey infrared detection system. Dose response curves for individual kinases were generated and IC50 values calculated. Kinobeads™ assays for ZAP-70 (WO-A 2007/137867) and for kinase selectivity profiling (WO-A 2006/134056) have been previously described.
(§3) The affinity matrix was washed two times with 15 mL of 1×DP buffer containing 0.2% NP40 (IGEPAL® CA-630, Sigma, #13021) and then resuspended in 1×DP buffer containing 0.2% NP40 (3% beads slurry).
(§4) 5×DP buffer: 250 mM Tris-HCl pH 7.4, 25% Glycerol, 7.5 mM MgCl2, 750 mM NaCl, 5 mM Na3VO4; filter the 5×DP buffer through a 0.22 μm filter and store in aliquots at −80° C. The 5×DP buffer is diluted with H2O to 1×DP buffer containing 1 mM DTT and 25 mM NaF.
(§5) Stock solutions of test compounds were prepared in DMSO. In a 96 well plate 30 μL solution of diluted test compounds at 5 mM in DMSO were prepared. Starting with this solution a 1:3 dilution series (9 steps) was prepared. For control experiments (no test compound) a buffer containing 2% DMSO was used.
(§6) Molt4 cells (ATCC catalogue number CRL-1582) and Ramos cells (ATCC catalogue number CRL-1596) were grown in 1 L Spinner flasks (Integra Biosciences, #182101) in suspension in RPMI 1640 medium (Invitrogen, #21875-034) supplemented with 10% Fetal Bovine Serum (Invitrogen) at a density between 0.15×10^6 and 1.2×10^6 cells/mL. Cells were harvested by centrifugation, washed once with 1×PBS buffer (Invitrogen, #14190-094) and cell pellets were frozen in liquid nitrogen and subsequently stored at −80° C. Cells were homogenized in a Potter S homogenizer in lysis buffer: 50 mM Tris-HCl, 0.8% NP40, 5% glycerol, 150 mM NaCl, 1.5 mM MgCl2, 25 mM NaF, 1 mM sodium vanadate, 1 mM DTT, pH 7.5. One complete EDTA-free tablet (protease inhibitor cocktail, Roche Diagnostics, 1873580) per 25 ml, buffer was added. The material was dounced 10 times using a mechanized POTTER S, transferred to 50 mL falcon tubes, incubated for 30 minutes on ice and spun down for 10 minutes at 20,000 g at 4° C. (10,000 rpm in Sorvall SLA600, precooled). The supernatant was transferred to an ultracentrifuge (UZ)-polycarbonate tube (Beckmann, 355654) and spun for 1 hour at 100.000 g at 4° C. (33.500 rpm in Ti50.2, precooled). The supernatant was transferred again to a fresh 50 mL falcon tube, the protein concentration was determined by a Bradford assay (BioRad) and samples containing 50 mg of protein per aliquot were prepared. The samples were immediately used for experiments or frozen in liquid nitrogen and stored frozen at −80° C.
(§7) Cell lysate (approximately 50 mg protein per plate) was thawed in a water bath at room temperature and then stored on ice. To the thawed cell lysate 1×DP 0.8% NP40 buffer containing protease inhibitors (1 tablet for 25 mL buffer; EDTA-free protease inhibitor cocktail; Roche Diagnostics 1873580) was added in order to reach a final protein concentration of 10 mg/mL total protein. The diluted cell lysate was stored on ice. Mixed Molt4/Ramos lysate was prepared by combining one volume of Molt4 lysate and two volumes of Ramos lysate (ratio 1:2). […]

TYK2 = biological target: T2, TYK2 (Homo sapiens, UniProt P29597); test: Kinobeads assay with immunodetection, TYK2; conditions: for IC50: Kinobeads assay, mixed Molt4/Ramos lysate, read-out: Inhibition values (IC50) Tyk2
T2 construct: endogenous in cells; host or cells: Molt4 (ATCC CRL-1582) and Ramos (ATCC CRL-1596) cells; mixed lysate 1:2
Experimental: as §1, §2, §3, §4, §5, §6, §7

JAK3 = biological target: T3, JAK3 (Homo sapiens, UniProt P52333); test: Kinobeads assay with immunodetection, JAK3; conditions: for IC50: Kinobeads assay, mixed Molt4/Ramos lysate, read-out: Inhibition values (IC50) JAK3
T3 construct: endogenous in cells; host or cells: Molt4 (ATCC CRL-1582) and Ramos (ATCC CRL-1596) cells; mixed lysate 1:2
T3 sequence (P52333 1-1124): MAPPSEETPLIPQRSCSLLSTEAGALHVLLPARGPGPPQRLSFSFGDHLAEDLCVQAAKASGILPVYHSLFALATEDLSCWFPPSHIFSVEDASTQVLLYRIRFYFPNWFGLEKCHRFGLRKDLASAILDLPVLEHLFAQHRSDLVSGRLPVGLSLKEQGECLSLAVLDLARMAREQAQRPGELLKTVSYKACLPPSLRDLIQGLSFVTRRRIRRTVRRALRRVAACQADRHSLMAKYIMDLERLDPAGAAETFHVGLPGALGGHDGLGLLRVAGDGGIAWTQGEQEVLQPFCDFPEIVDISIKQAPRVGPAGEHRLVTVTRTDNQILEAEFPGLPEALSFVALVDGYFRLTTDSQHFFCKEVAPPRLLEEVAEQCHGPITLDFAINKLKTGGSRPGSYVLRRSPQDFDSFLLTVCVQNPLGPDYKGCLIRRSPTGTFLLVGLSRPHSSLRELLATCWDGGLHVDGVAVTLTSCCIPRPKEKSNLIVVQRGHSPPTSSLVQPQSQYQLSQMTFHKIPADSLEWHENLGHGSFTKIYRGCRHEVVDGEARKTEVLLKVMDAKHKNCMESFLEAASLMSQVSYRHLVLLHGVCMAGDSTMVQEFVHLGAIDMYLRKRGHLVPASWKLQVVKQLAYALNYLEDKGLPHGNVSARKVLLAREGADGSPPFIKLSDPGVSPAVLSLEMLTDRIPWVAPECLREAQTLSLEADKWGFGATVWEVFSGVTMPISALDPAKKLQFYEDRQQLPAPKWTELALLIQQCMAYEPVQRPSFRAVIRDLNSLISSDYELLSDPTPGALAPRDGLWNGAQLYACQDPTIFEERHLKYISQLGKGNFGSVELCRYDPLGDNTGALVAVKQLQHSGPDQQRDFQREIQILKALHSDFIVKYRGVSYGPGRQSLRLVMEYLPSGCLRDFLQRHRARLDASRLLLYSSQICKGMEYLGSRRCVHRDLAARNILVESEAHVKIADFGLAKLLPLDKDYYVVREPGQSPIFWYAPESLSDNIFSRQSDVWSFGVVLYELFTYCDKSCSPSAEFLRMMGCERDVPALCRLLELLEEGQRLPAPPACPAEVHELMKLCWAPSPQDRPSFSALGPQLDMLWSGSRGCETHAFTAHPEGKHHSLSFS
Experimental: as §1, §2, §3, §4, §5, §6, §7

JAK1 = biological target: T4, JAK1 (Homo sapiens, UniProt P23458); test: Kinobeads assay with immunodetection, JAK1; conditions: for IC50: Kinobeads assay, mixed Molt4/Ramos lysate, read-out: Inhibition values (IC50) JAK1
T4 construct: endogenous in cells; host or cells: Molt4 (ATCC CRL-1582) and Ramos (ATCC CRL-1596) cells; mixed lysate 1:2
Experimental: as §1, §2, §3, §4, §5, §6, §7

T1 sequence (O60674 whole entry): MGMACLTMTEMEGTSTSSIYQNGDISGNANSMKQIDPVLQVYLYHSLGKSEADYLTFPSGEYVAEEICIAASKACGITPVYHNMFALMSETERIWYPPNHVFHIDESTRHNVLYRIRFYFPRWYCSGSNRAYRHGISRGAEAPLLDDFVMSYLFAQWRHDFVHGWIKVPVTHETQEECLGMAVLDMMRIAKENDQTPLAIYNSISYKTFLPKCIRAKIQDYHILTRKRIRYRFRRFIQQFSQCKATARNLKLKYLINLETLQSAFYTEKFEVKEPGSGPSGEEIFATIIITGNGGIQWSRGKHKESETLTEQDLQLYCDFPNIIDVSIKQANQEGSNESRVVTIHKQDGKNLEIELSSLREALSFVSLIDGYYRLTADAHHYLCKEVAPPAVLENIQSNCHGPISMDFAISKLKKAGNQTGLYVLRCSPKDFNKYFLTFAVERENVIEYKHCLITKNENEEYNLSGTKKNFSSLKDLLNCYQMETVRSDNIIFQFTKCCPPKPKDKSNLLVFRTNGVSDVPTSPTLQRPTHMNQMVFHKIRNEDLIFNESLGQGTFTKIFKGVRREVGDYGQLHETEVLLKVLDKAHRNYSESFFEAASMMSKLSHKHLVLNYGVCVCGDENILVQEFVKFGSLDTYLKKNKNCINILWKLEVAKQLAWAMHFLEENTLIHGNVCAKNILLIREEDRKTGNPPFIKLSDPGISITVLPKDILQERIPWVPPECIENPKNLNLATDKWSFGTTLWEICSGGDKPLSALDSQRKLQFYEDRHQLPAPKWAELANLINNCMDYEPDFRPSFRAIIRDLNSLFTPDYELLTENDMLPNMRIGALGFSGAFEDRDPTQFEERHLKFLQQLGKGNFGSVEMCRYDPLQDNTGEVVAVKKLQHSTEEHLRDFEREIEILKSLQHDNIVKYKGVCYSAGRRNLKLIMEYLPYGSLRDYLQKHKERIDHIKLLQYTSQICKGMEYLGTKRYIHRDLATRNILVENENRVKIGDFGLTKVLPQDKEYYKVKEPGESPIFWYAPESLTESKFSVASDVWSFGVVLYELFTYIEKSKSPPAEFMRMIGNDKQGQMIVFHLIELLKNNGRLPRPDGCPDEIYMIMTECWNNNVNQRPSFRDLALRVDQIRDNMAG
T2 sequence (P29597 whole entry): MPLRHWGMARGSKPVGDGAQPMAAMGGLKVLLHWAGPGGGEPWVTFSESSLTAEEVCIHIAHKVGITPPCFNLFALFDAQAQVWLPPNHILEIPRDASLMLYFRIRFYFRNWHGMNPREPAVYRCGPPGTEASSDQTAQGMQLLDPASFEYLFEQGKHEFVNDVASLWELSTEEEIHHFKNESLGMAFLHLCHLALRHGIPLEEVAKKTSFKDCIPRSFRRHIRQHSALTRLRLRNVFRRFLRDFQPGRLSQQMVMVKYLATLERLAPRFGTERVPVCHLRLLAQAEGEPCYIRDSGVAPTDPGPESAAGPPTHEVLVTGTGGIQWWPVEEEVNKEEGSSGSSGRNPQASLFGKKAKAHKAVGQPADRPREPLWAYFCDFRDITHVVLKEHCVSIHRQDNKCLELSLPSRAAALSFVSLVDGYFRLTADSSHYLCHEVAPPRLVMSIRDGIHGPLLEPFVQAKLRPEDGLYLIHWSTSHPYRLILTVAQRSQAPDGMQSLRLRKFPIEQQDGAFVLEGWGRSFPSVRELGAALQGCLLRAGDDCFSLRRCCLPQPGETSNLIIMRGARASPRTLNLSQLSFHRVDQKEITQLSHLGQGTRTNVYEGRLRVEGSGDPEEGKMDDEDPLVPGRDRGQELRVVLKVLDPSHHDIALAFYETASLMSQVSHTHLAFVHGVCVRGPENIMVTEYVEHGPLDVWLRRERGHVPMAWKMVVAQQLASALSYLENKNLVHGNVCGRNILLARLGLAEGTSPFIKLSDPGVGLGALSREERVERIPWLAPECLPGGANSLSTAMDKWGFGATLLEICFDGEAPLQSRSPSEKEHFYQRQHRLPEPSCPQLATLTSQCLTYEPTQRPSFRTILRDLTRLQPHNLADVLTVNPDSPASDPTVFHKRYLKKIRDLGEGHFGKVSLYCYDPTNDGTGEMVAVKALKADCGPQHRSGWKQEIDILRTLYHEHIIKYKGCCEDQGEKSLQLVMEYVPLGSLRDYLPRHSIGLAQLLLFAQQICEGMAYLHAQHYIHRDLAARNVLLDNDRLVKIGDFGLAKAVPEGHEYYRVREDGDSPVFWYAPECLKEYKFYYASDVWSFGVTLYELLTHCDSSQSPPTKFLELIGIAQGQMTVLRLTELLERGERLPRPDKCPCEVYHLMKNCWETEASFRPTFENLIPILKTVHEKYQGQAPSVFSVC
T4 sequence (P23458 whole entry): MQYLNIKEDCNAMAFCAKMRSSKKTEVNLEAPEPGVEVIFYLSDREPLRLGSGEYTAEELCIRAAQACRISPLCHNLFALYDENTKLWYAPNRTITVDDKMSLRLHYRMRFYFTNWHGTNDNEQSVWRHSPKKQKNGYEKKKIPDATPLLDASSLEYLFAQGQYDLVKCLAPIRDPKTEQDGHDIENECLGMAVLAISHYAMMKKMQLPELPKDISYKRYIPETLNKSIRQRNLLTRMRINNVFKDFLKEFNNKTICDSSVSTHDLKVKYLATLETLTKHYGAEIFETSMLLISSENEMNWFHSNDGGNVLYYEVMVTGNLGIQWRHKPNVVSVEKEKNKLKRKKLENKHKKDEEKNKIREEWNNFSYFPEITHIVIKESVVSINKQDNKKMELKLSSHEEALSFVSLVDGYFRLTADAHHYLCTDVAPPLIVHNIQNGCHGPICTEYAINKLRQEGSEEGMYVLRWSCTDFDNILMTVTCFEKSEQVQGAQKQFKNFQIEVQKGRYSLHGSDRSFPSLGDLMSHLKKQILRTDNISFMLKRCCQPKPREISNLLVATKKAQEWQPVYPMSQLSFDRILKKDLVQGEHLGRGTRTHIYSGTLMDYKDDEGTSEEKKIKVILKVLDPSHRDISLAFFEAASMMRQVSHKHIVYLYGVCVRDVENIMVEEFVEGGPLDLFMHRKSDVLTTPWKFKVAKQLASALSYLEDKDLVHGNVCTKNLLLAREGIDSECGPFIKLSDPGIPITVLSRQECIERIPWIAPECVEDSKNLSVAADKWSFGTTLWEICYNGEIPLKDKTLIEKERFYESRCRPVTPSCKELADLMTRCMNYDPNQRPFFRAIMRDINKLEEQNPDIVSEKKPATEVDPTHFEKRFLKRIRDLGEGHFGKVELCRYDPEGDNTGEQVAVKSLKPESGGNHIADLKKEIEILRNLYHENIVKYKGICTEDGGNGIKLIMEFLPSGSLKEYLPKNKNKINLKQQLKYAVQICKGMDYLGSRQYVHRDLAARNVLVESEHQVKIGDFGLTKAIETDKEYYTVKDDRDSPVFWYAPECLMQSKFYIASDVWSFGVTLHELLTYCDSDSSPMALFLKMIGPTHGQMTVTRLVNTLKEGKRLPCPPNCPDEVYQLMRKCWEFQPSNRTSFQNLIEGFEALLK

SMILES	IC50 (JAK2) [nM]	IC50 (TYK2) [nM]	IC50 (JAK3) [nM]	Selectivity ratio over JAK2, JAK1 (JAK1)	IC50 (JAK1) [nM]	Selectivity ratio over JAK2, Tyk2 (TYK2; Tyk2 over JAK2)	Selectivity ratio over JAK2, JAK3 (JAK3)
CS(=O)(=O)N1CCC[C@H]1CNc1nc(Nc2cnn(CCO)c2)ncc1Cl [Example 13, (S)-2-(4-((5-chloro-4-(((1-(methylsulfonyl)pyrrolidin-2-yl)methyl)amino)pyrimidin-2-yl)amino)-1H-pyrazol-1-yl)ethanol]	100 to 1000	< 100	< 100	JAK1 = 13	< 100	–	–
CC(=O)N1CC(CNc2nc(Nc3cnn(CCO)c3)ncc2Cl)C1 [Example 17, 1-(3-(((5-chloro-2-((1-(2-hydroxyethyl)-1H-pyrazol-4-yl)amino)pyrimidin-4-yl)amino)methyl)azetidin-1-yl)ethanone]	> 10000	1000 to 10000	1000 to 10000	–	1000 to 10000	–	–
CC(=O)N1CC[C@H](CNc2nc(Nc3cnn(CCO)c3)ncc2Cl)C1 [Example 21, (R)-1-(3-(((5-chloro-2-((1-(2-hydroxyethyl)-1H-pyrazol-4-yl)amino)pyrimidin-4-yl)amino)methyl)pyrrolidin-1-yl)ethanone]	1000 to 10000	< 100	100 to 1000	JAK1 = 78	< 100	–	–
Cn1cc(Nc2ncc(Cl)c(NC[C@H]3CCN(S(C)(=O)=O)C3)n2)cn1 [Example 24, (R)-5-chloro-N^2-(1-methyl-1H-pyrazol-4-yl)-N^4-((1-(methylsulfonyl)pyrrolidin-3-yl)methyl)pyrimidine-2,4-diamine]	100 to 1000	< 100	100 to 1000	JAK1 = 23	< 100	–	–
C=CS(=O)(=O)N1CC[C@H](CNc2nc(Nc3cnn(C)c3)ncc2Cl)C1 [Example 25, (R)-5-chloro-N^2-(1-methyl-1H-pyrazol-4-yl)-N^4-((1-(vinylsulfonyl)pyrrolidin-3-yl)methyl)pyrimidine-2,4-diamine]	> 10000	100 to 1000	< 100	–	100 to 1000	–	JAK3 = 556

Other lines, results leading:

IC50 (JAK2) [nM]	IC50 (TYK2) [nM]	IC50 (JAK3) [nM]	Selectivity ratio over JAK2, JAK1 (JAK1)	IC50 (JAK1) [nM]	Selectivity ratio over JAK2, Tyk2 (TYK2; Tyk2 over JAK2)	Selectivity ratio over JAK2, JAK3 (JAK3)	SMILES
1000 to 10000	< 100	< 100	–	100 to 1000	Tyk2 = 14	–	C=CS(=O)(=O)N1CCC[C@H]1CNc1nc(Nc2cnn(C)c2)ncc1Cl [Example 14, (S)-5-chloro-N^2-(1-methyl-1H-pyrazol-4-yl)-N^4-((1-(vinylsulfonyl)pyrrolidin-2-yl)methyl)pyrimidine-2,4-diamine]
100 to 1000	< 100	< 100	JAK1 = 13	< 100	–	–	C=CS(=O)(=O)N1CCC[C@H]1CNc1nc(Nc2cnn(CCO)c2)ncc1Cl [Example 15, (S)-2-(4-((5-chloro-4-(((1-(vinylsulfonyl)pyrrolidin-2-yl)methyl)amino)pyrimidin-2-yl)amino)-1H-pyrazol-1-yl)ethanol]
> 10000	> 10000	> 10000	–	> 10000	–	–	CC(=O)N1CC(CNc2nc(Nc3cnn(C)c3)ncc2Cl)C1 [Example 16, 1-(3-(((5-chloro-2-((1-methyl-1H-pyrazol-4-yl)amino)pyrimidin-4-yl)amino)methyl)azetidin-1-yl)ethanone]
> 10000	> 10000	> 10000	–	> 10000	–	–	Cn1cc(Nc2ncc(Cl)c(NCC3CN(S(C)(=O)=O)C3)n2)cn1 [Example 18, 5-chloro-N^2-(1-methyl-1H-pyrazol-4-yl)-N^4-((1-(methylsulfonyl)azetidin-3-yl)methyl)pyrimidine-2,4-diamine]
1000 to 10000	100 to 1000	< 100	–	100 to 1000	–	–	CS(=O)(=O)N1CC(CNc2nc(Nc3cnn(CCO)c3)ncc2Cl)C1 [Example 19, 2-(4-((5-chloro-4-(((1-(methylsulfonyl)azetidin-3-yl)methyl)amino)pyrimidin-2-yl)amino)-1H-pyrazol-1-yl)ethanol]
1000 to 10000	100 to 1000	1000 to 10000	JAK1 = 42	100 to 1000	–	–	CC(=O)N1CC[C@H](CNc2nc(Nc3cnn(C)c3)ncc2Cl)C1 [Example 20, (R)-1-(3-(((5-chloro-2-((1-methyl-1H-pyrazol-4-yl)amino)pyrimidin-4-yl)amino)methyl)pyrrolidin-1-yl)ethanone]
1000 to 10000	100 to 1000	< 100	–	100 to 1000	–	JAK3 = 610	C=CC(=O)N1CC[C@H](CNc2nc(Nc3cnn(C)c3)ncc2Cl)C1 [Example 22, (R)-1-(3-(((5-chloro-2-((1-methyl-1H-pyrazol-4-yl)amino)pyrimidin-4-yl)amino)methyl)pyrrolidin-1-yl)prop-2-en-1-one]
1000 to 10000	< 100	< 100	–	< 100	–	JAK3 = 270	C=CC(=O)N1CC[C@H](CNc2nc(Nc3cnn(CCO)c3)ncc2Cl)C1 [Example 23, (R)-1-(3-(((5-chloro-2-((1-(2-hydroxyethyl)-1H-pyrazol-4-yl)amino)pyrimidin-4-yl)amino)methyl)pyrrolidin-1-yl)prop-2-en-1-one]
